Laboratory results as given in article PMC9758846, “Dinuclear and mononuclear metal(II) polypyridyl complexes against drug-sensitive and drug-resistant Plasmodium falciparum and their mode of action” (Malaria Journal, 2022).

How the values were obtained:
[1] = system: B+ blood red blood cells (RBC); assay: In vitro haemolytic assay; format: cell-based, human; conditions: 72 h, B+ blood
Experimental: Fresh B+ blood was washed with RPMI1640 medium containing of 30 µg/mL gentamicin (Gibco) and centrifuged at 1000 xg for 10 min three times. The percentage of haemolysis was determined spectroscopically using 5% haematocrit containing test compound at increasing concentration and incubated for 72 h at 37 °C [19, 20]. Untreated blood acted as negative control while blood treated with sterile distilled water acted as positive control (for 100% haemolysis).

Pf3D7 = assay: Nuclear morphology study by Hoechst staining; format: cell-based, Plasmodium falciparum; conditions: Pf3D7-infected RBC; 72 h; 0.2-25 µM
Experimental: Detections of haemolytic and apoptotic morphological features were examined on Giemsa-stained thin blood smear. The parasite was then visualised with oil immersion (100 × magnification) using upright brightfield microscope. Another thin blood smear was prepared, fixed with methanol, stained in 10 µg/mL of Hoechst 33,258 stain, and kept in the dark for 30 min at room temperature. A cover slip was applied, and the nuclear morphological examination was then visualized with at 100 × magnification with oil by fluorescence microscope using DAPI filter.
The morphological features of apoptosis of P. falciparum can be indicated by chromosome condensation and fragmentation of the P. falciparum nuclei in the non-nuclear RBC cells. The condensed chromosomes would be stained bright blue. The pRBC cells were treated with (1) and (3) respectively for 72 h, and the resultant pRBC were visualized and photographed at 100 × magnification with oil immersion. Typical images were enlarged to look at single cells and are depicted in Fig. 9 for Pf3D7 and Fig. 10 for Pf5202. […] The nuclei of P. falciparum trophozoites in pRBC were observed under brightfield microscope as dots, and they were stained brighter blue which increased in fluorescence intensity with increasing concentration of copper(II) complexes of (1) and (3) from 0.2, 1, 5 to 25 µM compared to the untreated pRBC.

[2] = Solution stability by molar conductivity and visible absorptivity; format: physicochemical; conditions: 24, 48 and 72 h; room temperature
Experimental: Series of 10 mM stock solutions were prepared by dissolving the compounds in their respective solvents: phen and 4,4′-bipy in 95% ethanol; Cu(NO3)2·3H2O, Zn(NO3)2·6H2O, (1) and (2) in double distilled water; (3) and (4) in DMSO. All the stock solutions were further diluted with double distilled water to obtain 10 mL of 30 µM, 1 mM and 5 mM for their respective studies, viz. 30 µM for ultraviolet spectral studies, 1 mM for conductivity measurement and 5 mM for visible spectral studies. For the water-DMSO solutions of both complexes (3) and (4), the 30 µM, 1 mM and 5 mM solutions have […], 10% DMSO and 50% DMSO respectively. The absorbance at λmax and conductance were of the aqueous solutions were measured at 0, 24, 48 and 72 h. The molar absorptivity and molar conductivity of the metal(II) complex solutions and their precursors were then calculated.

Row | Compound | Percentage of haemolysis (haemolytic index, HI) ([1]; 1 µM) [%] | Percentage of haemolysis (haemolytic index, HI) ([1]; 5 µM) [%] | Percentage of haemolysis (haemolytic index, HI) ([1]; 25 µM) [%] | Type of cell death by nuclear morphology (Hoechst) (Pf3D7) | Stability of aqueous solution (molar conductivity; for (1) also visible molar absorptivity) [2]
1 | O.O=[N+]([O-])[O-].O=[N+]([O-])[O-].[Cu+2].c1cnc2c(c1)ccc1cccnc12.c1cnc2c(c1)ccc1cccnc12 [Complex 1, [Cu(phen)2](NO3)2·H2O] | 4 | 80 | 43 | underwent apoptosis | remains practically unchanged
2 | [Cu(phen)(NO3)(H2O)-4,4′-bipy-Cu(phen)(NO3)(H2O)](NO3)2 [Complex 3] | 35 | 96 | 36 | underwent apoptosis | 
